Measured values taken from ChEMBL document CHEMBL3352784, “Investigation of Cardiovascular Effects of Tetrahydro-β-carboline sstr3 antagonists” (ACS Med Chem Lett, 2014).

Legend:
[1] = biological target: T1, Somatostatin receptor type 3 (Mus musculus, UniProt P30935); test: Antagonist activity at mouse SSTR3 expressed in CHO cells assessed as cAMP level by fluorescence analysis; assay type: functional, cell-based
[2] = biological target: Somatostatin receptor type 3 (Mus musculus) (UniProt P30935); test: Antagonist activity at mouse SSTR3 expressed in CHO cells assessed as cAMP level by fluorescence analysis relative to control; assay type: functional, cell-based; design: concentration or dose not given beside the values; conditions: concentration not given here
[3] = biological target: T2, Somatostatin receptor type 3 (Homo sapiens, UniProt P32745)
Description: Antagonist activity at human SSTR3 expressed in CHO cells assessed as cAMP level by fluorescence analysis

[4] = biological target: T2, Somatostatin receptor type 3; test: biochemical
Description: Displacement of [125I]SS-14 from human SSTR3 expressed in CHO cells by TopCount analyzer

[5] = biological target: Voltage-gated inwardly rectifying potassium channel KCNH2 (Homo sapiens, UniProt Q12809)
Description: Inhibition of human ERG by MK-499 displacement binding analysis

[6] = biological target: T1, Somatostatin receptor type 3; assay type: cell-based, CHO
Canis familiaris = test: Toxicity in anesthetized vagus-intact cardiovascular dog model assessed as QTc interval prolongation at 909 uM plasma concentration; assay type: organism-based, Canis lupus familiaris
[7] = Clearance in mouse; assay type: ADME, organism-based; conditions: in vivo
[8] = Half life in mouse; assay type: ADME, organism-based; conditions: in vivo
[9] = Oral bioavailability in mouse; assay type: ADME, organism-based; conditions: in vivo
[10] = biological target: Somatostatin receptor type 1 (Homo sapiens, UniProt P30872); assay type: cell-based, CHO
[11] = biological target: Somatostatin receptor type 2 (Homo sapiens, UniProt P30874); assay type: cell-based, CHO
[12] = biological target: Somatostatin receptor type 4 (Homo sapiens, UniProt P31391); assay type: cell-based, CHO
[13] = biological target: Somatostatin receptor type 5 (Homo sapiens, UniProt P35346); assay type: cell-based, CHO
Mus musculus [14] = test: Antidiabetic activity in C57BL/6 mouse assessed as reduction in glucose excursion at 3 mg/kg, po by oGTT assay relative to MK-4256; assay type: functional
Mus musculus [15] = test: Antidiabetic activity in C57BL/6 mouse assessed as reduction in glucose excursion at 10 mg/kg, po by oGTT assay relative to MK-4256; assay type: functional
Mus musculus [16] = test: Antidiabetic activity in C57BL/6 mouse assessed as reduction in glucose excursion at 3 mg/kg, po by oGTT assay relative to control; assay type: functional; conditions: C57BL/6, read-out: INH
[17] = Plasma concentration in C57BL/6 mouse at 3 mg/kg, po after 2.5 hrs; assay type: ADME, organism-based; design: dose 3 mg/kg, route oral
[18] = Plasma concentration in C57BL/6 mouse at 10 mg/kg, po after 2.5 hrs; assay type: ADME, organism-based; design: dose 10 mg/kg, route oral
Mus musculus [19] = test: Antidiabetic activity in C57BL/6 mouse assessed as reduction in glucose excursion at 1 mg/kg, ip by oGTT assay relative to MK-4256; assay type: functional; conditions: C57BL/6, ip, route intraperitoneal
[20] = Plasma concentration in C57BL/6 mouse at 1 mg/kg, ip after 2.5 hrs; assay type: ADME, organism-based; design: dose 1 mg/kg, route intraperitoneal
in vivo [21] = conditions: dog, iv, 10 mg/kg
in vivo [22] = conditions: dog, iv, 20 mg/kg
in vivo [23] = conditions: dog, iv, 50 mg/kg

Chain of Somatostatin receptor type 3 (Mus musculus) (P30935 whole entry): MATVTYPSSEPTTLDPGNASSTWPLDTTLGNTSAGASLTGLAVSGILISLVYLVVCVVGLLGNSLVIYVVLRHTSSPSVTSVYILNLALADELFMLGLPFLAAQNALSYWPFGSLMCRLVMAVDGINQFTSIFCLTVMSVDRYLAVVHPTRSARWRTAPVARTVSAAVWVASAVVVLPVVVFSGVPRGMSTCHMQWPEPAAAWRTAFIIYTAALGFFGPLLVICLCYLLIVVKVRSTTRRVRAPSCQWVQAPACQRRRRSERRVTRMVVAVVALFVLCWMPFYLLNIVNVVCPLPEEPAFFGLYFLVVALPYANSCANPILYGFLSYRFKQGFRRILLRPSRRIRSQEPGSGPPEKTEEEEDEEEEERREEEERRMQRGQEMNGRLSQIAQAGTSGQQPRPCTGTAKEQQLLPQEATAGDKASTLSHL
T1 sequence (P30935 whole entry): as above
T2 sequence (P32745 whole entry): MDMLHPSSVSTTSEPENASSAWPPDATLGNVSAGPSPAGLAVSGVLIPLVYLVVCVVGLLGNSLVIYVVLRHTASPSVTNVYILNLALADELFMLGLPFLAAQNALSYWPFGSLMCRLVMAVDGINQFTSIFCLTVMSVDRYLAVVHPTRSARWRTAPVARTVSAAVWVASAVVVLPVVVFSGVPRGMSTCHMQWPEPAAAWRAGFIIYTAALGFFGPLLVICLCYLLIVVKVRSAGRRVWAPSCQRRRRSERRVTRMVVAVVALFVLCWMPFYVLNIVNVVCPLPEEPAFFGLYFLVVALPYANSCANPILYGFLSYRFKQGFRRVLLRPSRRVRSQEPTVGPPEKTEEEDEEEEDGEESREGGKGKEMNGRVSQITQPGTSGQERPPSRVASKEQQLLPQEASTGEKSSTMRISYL
Chain of Voltage-gated inwardly rectifying potassium channel KCNH2 (Q12809 whole entry): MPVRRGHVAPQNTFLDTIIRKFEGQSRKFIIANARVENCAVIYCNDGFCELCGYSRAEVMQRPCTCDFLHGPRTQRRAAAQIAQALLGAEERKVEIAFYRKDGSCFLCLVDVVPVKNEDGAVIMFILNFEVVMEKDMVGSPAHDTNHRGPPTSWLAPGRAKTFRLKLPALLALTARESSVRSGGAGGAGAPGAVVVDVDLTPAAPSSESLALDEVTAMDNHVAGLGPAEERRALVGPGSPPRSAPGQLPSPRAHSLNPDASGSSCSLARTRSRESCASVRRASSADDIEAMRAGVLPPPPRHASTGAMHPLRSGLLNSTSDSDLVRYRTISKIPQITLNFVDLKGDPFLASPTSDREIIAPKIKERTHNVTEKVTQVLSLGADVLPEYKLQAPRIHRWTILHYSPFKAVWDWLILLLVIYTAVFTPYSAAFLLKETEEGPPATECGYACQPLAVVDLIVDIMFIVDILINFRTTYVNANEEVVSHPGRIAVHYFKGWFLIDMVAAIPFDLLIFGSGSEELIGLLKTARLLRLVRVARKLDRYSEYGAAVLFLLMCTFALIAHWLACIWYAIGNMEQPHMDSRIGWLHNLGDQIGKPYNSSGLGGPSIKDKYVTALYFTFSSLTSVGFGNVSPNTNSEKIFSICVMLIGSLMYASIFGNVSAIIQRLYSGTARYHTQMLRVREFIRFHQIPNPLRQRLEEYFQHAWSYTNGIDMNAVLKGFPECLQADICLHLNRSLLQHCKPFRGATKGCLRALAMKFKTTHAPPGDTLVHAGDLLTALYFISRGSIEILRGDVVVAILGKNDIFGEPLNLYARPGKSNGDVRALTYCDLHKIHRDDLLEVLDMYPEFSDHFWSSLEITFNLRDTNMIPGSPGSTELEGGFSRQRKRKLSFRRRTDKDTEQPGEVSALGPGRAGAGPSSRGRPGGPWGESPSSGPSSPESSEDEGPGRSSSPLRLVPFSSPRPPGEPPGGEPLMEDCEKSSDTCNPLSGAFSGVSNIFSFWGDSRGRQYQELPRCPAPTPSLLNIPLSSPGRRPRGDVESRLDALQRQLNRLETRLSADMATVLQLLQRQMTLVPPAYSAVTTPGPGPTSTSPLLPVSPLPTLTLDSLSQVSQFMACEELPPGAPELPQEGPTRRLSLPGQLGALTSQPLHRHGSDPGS
Chain of Somatostatin receptor type 1 (P30872 whole entry): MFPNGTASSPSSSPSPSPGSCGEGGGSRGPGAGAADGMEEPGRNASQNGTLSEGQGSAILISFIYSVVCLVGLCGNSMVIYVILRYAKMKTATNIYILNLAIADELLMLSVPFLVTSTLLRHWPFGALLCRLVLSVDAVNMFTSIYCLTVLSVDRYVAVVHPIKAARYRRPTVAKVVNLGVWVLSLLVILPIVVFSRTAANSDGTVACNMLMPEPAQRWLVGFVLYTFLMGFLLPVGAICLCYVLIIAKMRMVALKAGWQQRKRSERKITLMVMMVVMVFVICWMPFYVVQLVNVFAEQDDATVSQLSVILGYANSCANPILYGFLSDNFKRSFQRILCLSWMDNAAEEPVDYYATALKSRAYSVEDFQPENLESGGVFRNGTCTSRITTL
Chain of Somatostatin receptor type 4 (P31391 whole entry): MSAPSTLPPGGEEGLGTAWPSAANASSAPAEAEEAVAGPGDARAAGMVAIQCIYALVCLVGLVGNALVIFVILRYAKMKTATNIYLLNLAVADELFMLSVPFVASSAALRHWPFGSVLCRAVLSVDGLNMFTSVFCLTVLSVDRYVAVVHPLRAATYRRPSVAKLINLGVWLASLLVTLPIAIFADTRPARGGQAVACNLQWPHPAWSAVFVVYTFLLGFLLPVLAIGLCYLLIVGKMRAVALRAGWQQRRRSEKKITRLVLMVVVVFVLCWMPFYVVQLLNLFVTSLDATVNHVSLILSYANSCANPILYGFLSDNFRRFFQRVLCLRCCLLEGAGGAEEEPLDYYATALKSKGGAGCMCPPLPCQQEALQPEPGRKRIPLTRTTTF
Chain of Somatostatin receptor type 5 (P35346 whole entry): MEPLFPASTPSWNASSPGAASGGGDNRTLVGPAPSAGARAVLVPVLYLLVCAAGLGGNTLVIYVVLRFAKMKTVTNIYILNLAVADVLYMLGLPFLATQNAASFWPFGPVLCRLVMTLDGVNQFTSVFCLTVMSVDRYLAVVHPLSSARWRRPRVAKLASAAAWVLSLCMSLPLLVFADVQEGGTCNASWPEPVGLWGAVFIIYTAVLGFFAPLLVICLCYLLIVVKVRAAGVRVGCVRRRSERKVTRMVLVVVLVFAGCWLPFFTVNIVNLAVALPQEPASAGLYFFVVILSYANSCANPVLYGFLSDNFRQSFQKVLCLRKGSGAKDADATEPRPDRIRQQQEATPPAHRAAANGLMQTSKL
Chain of Somatostatin receptor type 2 (P30874 whole entry): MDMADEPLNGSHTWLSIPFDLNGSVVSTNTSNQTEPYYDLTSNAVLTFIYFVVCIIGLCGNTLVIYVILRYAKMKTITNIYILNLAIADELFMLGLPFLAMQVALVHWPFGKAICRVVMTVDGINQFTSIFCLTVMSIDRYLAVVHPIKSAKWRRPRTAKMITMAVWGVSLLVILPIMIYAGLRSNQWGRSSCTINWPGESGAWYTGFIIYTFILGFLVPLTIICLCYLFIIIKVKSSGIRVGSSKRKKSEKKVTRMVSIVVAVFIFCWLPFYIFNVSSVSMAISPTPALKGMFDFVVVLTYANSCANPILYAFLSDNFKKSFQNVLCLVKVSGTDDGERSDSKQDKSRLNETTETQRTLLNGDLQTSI

Work on `CCOC(=O)c1ccnc([C@@]2(c3cnn(C)c3)N[C@@H](c3nc(-c4ccc(F)cc4)c[nH]3)Cc3c2[nH]c2ccccc32)c1` yielded an IC50 [1] of 14.7 nM, an inhibition [2] of 85% and an IC50 [3] of 47.1 nM. For the same compound, the IC50 [4] was 4.87 nM.
Work on `CCOC(=O)c1cncc([C@]2(c3cnn(C)c3)N[C@@H](c3nc(-c4ccc(F)cc4)c[nH]3)Cc3c2[nH]c2ccccc32)c1` yielded an IC50 [1] of 0.35 nM, an inhibition [2] of 99% and an IC50 [5] of 2260 nM. It also gave an IC50 [3] of 0.15 nM and an IC50 [4] of 0.78 nM.
`CCOC(=O)c1cncc([C@@]2(c3cnn(C)c3)N[C@@H](c3nc(-c4ccc(F)cc4)c[nH]3)Cc3c2[nH]c2ccccc32)c1` gave an IC50 [1] of 8.37 nM, an inhibition [2] of 107% and an IC50 [5] of 2520 nM. It also gave an IC50 [3] of 24 nM and an IC50 [4] of 3.36 nM.
Work on `Cn1cc([C@@]2(c3cncc(C(=O)O)c3)N[C@@H](c3nc(-c4ccc(F)cc4)c[nH]3)Cc3c2[nH]c2ccccc32)cn1` yielded an IC50 [1] of 0.16 nM, an inhibition [2] of 67% and an IC50 [3] of 0.52 nM. For the same compound, the IC50 [4] was 1.22 nM.
In the case of `Cn1cc([C@]2(c3cncc(C(=O)O)c3)N[C@@H](c3nc(-c4ccc(F)cc4)c[nH]3)Cc3c2[nH]c2ccccc32)cn1`, the IC50 [1] is reported as 2.9 nM, the inhibition [2] is reported as 80% and the IC50 [3] is reported as 6.12 nM. For the same compound, the IC50 [4] was 10.8 nM.
Work on `CCOC(=O)c1ccnc(C2(c3cnn(C)c3)N[C@@H](c3nc(-c4ccc(F)cc4)c[nH]3)Cc3c2[nH]c2ccccc32)c1` (single isomer, unassigned) yielded an IC50 [6] of 0.41 nM, an IC50 [1] of 0.36 nM and an inhibition [2] of 91%. For the same compound, the IC50 [3] was 0.78 nM and the IC50 [4] was 0.64 nM.
For `Cn1cc(C2(c3cccc(C(=O)O)n3)N[C@@H](c3nc(-c4ccc(F)cc4)c[nH]3)Cc3c2[nH]c2ccccc32)cn1` (single isomer, unassigned; 2A) [listing 1 of 2 here], the IC50 [6] was 3.93 nM, the IC50 [1] was 34 nM and the IC50 [3] was 67 nM. For the same compound, the IC50 [4] was 4.41 nM.
Compound `Cn1cc(C2(c3cccc(C(=O)O)n3)N[C@@H](c3nc(-c4ccc(F)cc4)c[nH]3)Cc3c2[nH]c2ccccc32)cn1` (single isomer, unassigned; 2A) [listing 2 of 2 here] has an inhibition [2] of 101%.
For `Cn1cc(C2(c3cccc(C(=O)O)n3)N[C@@H](c3nc(-c4ccc(F)cc4)c[nH]3)Cc3c2[nH]c2ccccc32)cn1` (single isomer, unassigned; 2B) [listing 1 of 2 here], the IC50 [1] was 111 nM, the IC50 [3] was 105 nM and the IC50 [4] was 74.7 nM.
In the case of `Cn1cc(C2(c3cccc(C(=O)O)n3)N[C@@H](c3nc(-c4ccc(F)cc4)c[nH]3)Cc3c2[nH]c2ccccc32)cn1` (single isomer, unassigned; 2B) [listing 2 of 2 here], the inhibition [2] is reported as 69%.
For `Cn1cc(C2(c3cc(C(=O)O)ccn3)N[C@@H](c3nc(-c4ccc(F)cc4)c[nH]3)Cc3c2[nH]c2ccccc32)cn1` (single isomer, unassigned; 3A) [listing 1 of 2 here], the Activity (Canis familiaris) was “Non-toxic”, the IC50 [6] was 1.72 nM and the IC50 [1] was 0.73 nM. For the same compound, the clearance [7] was 15.6 mL/min/kg, the half-life [8] was 2.62 h and the bioavailability [9] was 1.5%. It also gave an IC50 [10] greater than 10000 nM, an IC50 [11] greater than 10000 nM and an IC50 [12] greater than 10000 nM. It also gave an IC50 [13] greater than 10000 nM, an inhibition in vivo at 3 mg/kg (Mus musculus [14]) of 24% and an inhibition in vivo at 10 mg/kg (Mus musculus [15]) of 35%. It also gave an inhibition in vivo at 3 mg/kg (Mus musculus [16]) of 24%, a concentration at 2.5 h [17] of 0.002 µM and a concentration at 2.5 h [18] of 0.003 µM. It also gave an inhibition in vivo at 1 mg/kg (Mus musculus [19]) of 64%, a concentration at 2.5 h [20] of 0.074 µM and an IC50 [3] of 1.71 nM. For the same compound, the Cmax at 0.5 h (in vivo [21]) was 38 µM, the Cmax at 0.5 h (in vivo [22]) was 199 µM and the Cmax at 0.5 h (in vivo [23]) was 909 µM. It also gave an IC50 [4] of 2.13 nM.
`Cn1cc(C2(c3cc(C(=O)O)ccn3)N[C@@H](c3nc(-c4ccc(F)cc4)c[nH]3)Cc3c2[nH]c2ccccc32)cn1` (single isomer, unassigned; 3A) [listing 2 of 2 here] gave an inhibition [2] of 81%.
Compound `Cn1cc(C2(c3cc(C(=O)O)ccn3)N[C@@H](c3nc(-c4ccc(F)cc4)c[nH]3)Cc3c2[nH]c2ccccc32)cn1` (single isomer, unassigned; 3B) [listing 1 of 2 here] has an IC50 [1] of 17.1 nM, an IC50 [3] of 52.3 nM and an IC50 [4] of 72.7 nM.
For `Cn1cc(C2(c3cc(C(=O)O)ccn3)N[C@@H](c3nc(-c4ccc(F)cc4)c[nH]3)Cc3c2[nH]c2ccccc32)cn1` (single isomer, unassigned; 3B) [listing 2 of 2 here], the inhibition [2] was 70%.
With `Cn1cc(C2(c3ccc(C(=O)O)cn3)N[C@@H](c3nc(-c4ccc(F)cc4)c[nH]3)Cc3c2[nH]c2ccccc32)cn1` (single isomer, unassigned; 5A) [listing 1 of 2 here] the IC50 [1] was 57.1 nM.
Work on `Cn1cc(C2(c3ccc(C(=O)O)cn3)N[C@@H](c3nc(-c4ccc(F)cc4)c[nH]3)Cc3c2[nH]c2ccccc32)cn1` (single isomer, unassigned; 5A) [listing 2 of 2 here] yielded an inhibition [2] of 87%.
Work on `Cn1cc(C2(c3ccc(C(=O)O)cn3)N[C@@H](c3nc(-c4ccc(F)cc4)c[nH]3)Cc3c2[nH]c2ccccc32)cn1` (single isomer, unassigned; 5B) [listing 1 of 2 here] yielded an IC50 [1] of 1860 nM.
Compound `Cn1cc(C2(c3ccc(C(=O)O)cn3)N[C@@H](c3nc(-c4ccc(F)cc4)c[nH]3)Cc3c2[nH]c2ccccc32)cn1` (single isomer, unassigned; 5B) [listing 2 of 2 here] has an inhibition [2] of 51%.
`CCOC(=O)c1cccc(C2(c3cnn(C)c3)N[C@@H](c3nc(-c4ccc(F)cc4)c[nH]3)Cc3c2[nH]c2ccccc32)n1` (single isomer, unassigned; 6A) [listing 1 of 2 here] showed an IC50 [6] of 0.41 nM, an IC50 [1] of 0.58 nM and an IC50 [3] of 1.97 nM. The IC50 [4] was 0.83 nM.
`CCOC(=O)c1cccc(C2(c3cnn(C)c3)N[C@@H](c3nc(-c4ccc(F)cc4)c[nH]3)Cc3c2[nH]c2ccccc32)n1` (single isomer, unassigned; 6A) [listing 2 of 2 here] gave an inhibition [2] of 80%.
`CCOC(=O)c1cccc(C2(c3cnn(C)c3)N[C@@H](c3nc(-c4ccc(F)cc4)c[nH]3)Cc3c2[nH]c2ccccc32)n1` (single isomer, unassigned; 6B) [listing 1 of 2 here] gave an IC50 [6] of 0.7 nM, an IC50 [1] of 3.48 nM and an IC50 [3] of 5.36 nM. For the same compound, the IC50 [4] was 1.52 nM.
With `CCOC(=O)c1cccc(C2(c3cnn(C)c3)N[C@@H](c3nc(-c4ccc(F)cc4)c[nH]3)Cc3c2[nH]c2ccccc32)n1` (single isomer, unassigned; 6B) [listing 2 of 2 here] the inhibition [2] was 87%.
Work on `CCOC(=O)c1ccc(C2(c3cnn(C)c3)N[C@@H](c3nc(-c4ccc(F)cc4)c[nH]3)Cc3c2[nH]c2ccccc32)nc1` (single isomer, unassigned; 9A) [listing 1 of 2 here] yielded an IC50 [1] of 1.53 nM, an IC50 [3] of 5.25 nM and an IC50 [4] of 1.72 nM.
In the case of `CCOC(=O)c1ccc(C2(c3cnn(C)c3)N[C@@H](c3nc(-c4ccc(F)cc4)c[nH]3)Cc3c2[nH]c2ccccc32)nc1` (single isomer, unassigned; 9A) [listing 2 of 2 here], the inhibition [2] is reported as 96%.
`CCOC(=O)c1ccc(C2(c3cnn(C)c3)N[C@@H](c3nc(-c4ccc(F)cc4)c[nH]3)Cc3c2[nH]c2ccccc32)nc1` (single isomer, unassigned; 9B) [listing 1 of 2 here] gave an IC50 [1] of 14.2 nM, an IC50 [3] of 31.6 nM and an IC50 [4] of 2.91 nM.
Work on `CCOC(=O)c1ccc(C2(c3cnn(C)c3)N[C@@H](c3nc(-c4ccc(F)cc4)c[nH]3)Cc3c2[nH]c2ccccc32)nc1` (single isomer, unassigned; 9B) [listing 2 of 2 here] yielded an inhibition [2] of 66%.
